Seven compounds from PubChem BioAssay AID1259407 (Chemical Carcinogenesis Research Information System (CCRIS), 2018) can be followed below.

This data set has as its system CCRIS mutagenicity, Ames/micronucleus/aberration tests. Briefly: CCRIS mutagenicity studies.
Setting [1] is: Test System: AMES SALMONELLA TYPHIMURIUM, Strain/Indicator: TA98, Metabolic Activation: NONE, Method: PREINCUBATION
Setting [2] is: Test System: AMES SALMONELLA TYPHIMURIUM, Strain/Indicator: TA98, Metabolic Activation: NONE, Method: STANDARD PLATE.
Setting [3] is: Test System: AMES SALMONELLA TYPHIMURIUM, Strain/Indicator: TA98, Metabolic Activation: RAT, LIVER, S-9, AROCLOR 1254, Method: STANDARD PLATE.
Where [4] appears, read: Test System: AMES SALMONELLA TYPHIMURIUM, Strain/Indicator: TA100, Metabolic Activation: NONE, Method: STANDARD PLATE.
Where [5] appears, read: Test System: AMES SALMONELLA TYPHIMURIUM, Strain/Indicator: TA100, Metabolic Activation: RAT, LIVER, S-9, AROCLOR 1254, Method: STANDARD PLATE.
The mark [6] stands for this setting: Test System: AMES SALMONELLA TYPHIMURIUM, Strain/Indicator: TA1535, Metabolic Activation: NONE, Method: STANDARD PLATE.
[7] abbreviates: Test System: AMES SALMONELLA TYPHIMURIUM, Strain/Indicator: TA1535, Metabolic Activation: RAT, LIVER, S-9, AROCLOR 1254, Method: STANDARD PLATE.
The mark [8] stands for this setting: Test System: MOUSE LYMPHOMA, Strain/Indicator: L5178Y (TK+/TK-), Metabolic Activation: NONE, Method: SUSPENSION/PLATE.
Where [9] appears, read: Test System: MOUSE LYMPHOMA, Strain/Indicator: L5178Y (TK+/TK-), Metabolic Activation: RAT, LIVER, S-9, AROCLOR 1254, Method: SUSPENSION/PLATE.

Structures are written as SMILES. Calls of active or inactive are those of the source. The rule behind the calls is not given here.

Take `O=[N+]([O-])c1ccc2c(ccc3ccccc32)c1`: the mutagenic call was “active; positive” (Test System: AMES SALMONELLA TYPHIMURIUM, Strain/Indicator: TA98(1,8-DNP6), Metabolic Activation: NONE, Method: STANDARD PLATE); “active; positive” (Test System: AMES SALMONELLA TYPHIMURIUM, Strain/Indicator: TA98(NR), Metabolic Activation: NONE, Method: STANDARD PLATE); “active; positive” under setting [1]; “active; positive” under setting [2]; “active; positive” (Test System: AMES SALMONELLA TYPHIMURIUM, Strain/Indicator: TA98, Metabolic Activation: RAT, LIVER, S-9, PCB (10%), Method: PREINCUBATION); “active; positive” (Test System: AMES SALMONELLA TYPHIMURIUM, Strain/Indicator: TA7001, Metabolic Activation: NONE, Method: PREINCUBATION). For the same compound, the mutagenic call runs as follows: (Test System: AMES SALMONELLA TYPHIMURIUM, Strain/Indicator: TA7002, Metabolic Activation: NONE, Method: PREINCUBATION) “active; positive”; (Test System: AMES SALMONELLA TYPHIMURIUM, Strain/Indicator: TA7003, Metabolic Activation: NONE, Method: PREINCUBATION) “active; positive”; (Test System: AMES SALMONELLA TYPHIMURIUM, Strain/Indicator: TA7004, Metabolic Activation: NONE, Method: PREINCUBATION) “active; positive”; (Test System: AMES SALMONELLA TYPHIMURIUM, Strain/Indicator: TA7005, Metabolic Activation: NONE, Method: PREINCUBATION) “active; positive”; (Test System: AMES SALMONELLA TYPHIMURIUM, Strain/Indicator: TA7006, Metabolic Activation: NONE, Method: PREINCUBATION) “active; positive”.

Consider `Cc1c(N)nc([C@H](CC(N)=O)NC[C@H](N)C(N)=O)nc1C(=O)N[C@H](C(=O)N[C@H](C)[C@@H](O)[C@H](C)C(=O)N[C@H](C(=O)NCCc1nc(-c2nc(C(=O)NCCCN(C)CCCN(Cc3ccc(OCc4ccccc4)c(OCc4ccccc4)c3)Cc3ccc(OCc4ccccc4)c(OCc4ccccc4)c3)cs2)cs1)[C@@H](C)O)[C@@H](O[C@@H]1O[C@@H](CO)[C@@H](O)[C@H](O)[C@@H]1O[C@H]1O[C@H](CO)[C@@H](O)[C@H](OC(N)=O)[C@@H]1O)c1cnc[nH]1`, for which the mutagenic call by setting is: (Test System: AMES SALMONELLA TYPHIMURIUM, Strain/Indicator: TA94, Metabolic Activation: NONE, Method: PREINCUBATION) “inactive; negative”; (Test System: AMES SALMONELLA TYPHIMURIUM, Strain/Indicator: TA102, Metabolic Activation: NONE, Method: PREINCUBATION) “active; positive”.

With `CC(C)(Cl)Cl`, the mutagenic call (Test System: AMES SALMONELLA TYPHIMURIUM, Strain/Indicator: GSTT1, Metabolic Activation: RAT, LIVER, S-9, AROCLOR 1254, Method: STANDARD PLATE) was “inactive; negative”; the mutagenic call (Test System: AMES SALMONELLA TYPHIMURIUM, Strain/Indicator: RSJ100, Metabolic Activation: NONE, Method: STANDARD PLATE) was “inactive; negative”; the mutagenic call under setting [2] is “inactive; negative”; the mutagenic call under setting [3] was “inactive; negative”; the mutagenic call under setting [4] was “inactive; negative”; the mutagenic call under setting [5] was “inactive; negative”. Besides, the mutagenic call was “inactive; negative” (Test System: AMES SALMONELLA TYPHIMURIUM, Strain/Indicator: TA104, Metabolic Activation: NONE, Method: STANDARD PLATE); “inactive; negative” (Test System: AMES SALMONELLA TYPHIMURIUM, Strain/Indicator: TA104, Metabolic Activation: RAT, LIVER, S-9, AROCLOR 1254, Method: STANDARD PLATE); “inactive; negative” under setting [6]; “inactive; negative” under setting [7].

`Nc1ccc(N=Nc2ccc3c(c2)C(=O)/C(=N/Nc2ccc(Nc4ccc(N/N=C5/C(=O)c6cc(N=Nc7ccc(N)cc7N)ccc6C=C5S(=O)(=O)O)cc4S(=O)(=O)O)cc2)C(S(=O)(=O)O)=C3)c(N)c1`: the mutagenic call runs as follows: (Test System: AMES SALMONELLA TYPHIMURIUM, Strain/Indicator: TA98, Metabolic Activation: HAMSTER LIVER S-9, Method: PREINCUBATION) “active; positive”; (Test System: AMES SALMONELLA TYPHIMURIUM, Strain/Indicator: TA98, Metabolic Activation: HAMSTER, LIVER, S-9, AROCLOR 1254, Method: STANDARD PLATE) “active; positive”; (Test System: AMES SALMONELLA TYPHIMURIUM, Strain/Indicator: TA98, Metabolic Activation: HAMSTER, LIVER, S-9, Method: PREINCUBATION (PRIVAL METHOD)) “active; positive”; under setting [1], “active; positive”; under setting [2], “active; positive”; (Test System: AMES SALMONELLA TYPHIMURIUM, Strain/Indicator: TA98, Metabolic Activation: RAT LIVER S-9, AROCLOR 1254, Method: PREINCUBATION) “active; positive”. Besides, the mutagenic call is “active; positive” under setting [3]; “active; positive” (Test System: AMES SALMONELLA TYPHIMURIUM, Strain/Indicator: TA100, Metabolic Activation: HAMSTER LIVER S-9, Method: PREINCUBATION); “inactive; negative” (Test System: AMES SALMONELLA TYPHIMURIUM, Strain/Indicator: TA100, Metabolic Activation: HAMSTER, LIVER, S-9, AROCLOR 1254, Method: STANDARD PLATE); “inactive; negative” (Test System: AMES SALMONELLA TYPHIMURIUM, Strain/Indicator: TA100, Metabolic Activation: NONE, Method: PREINCUBATION); “inactive; negative” under setting [4]; “inactive; negative” (Test System: AMES SALMONELLA TYPHIMURIUM, Strain/Indicator: TA100, Metabolic Activation: RAT LIVER S-9, AROCLOR 1254, Method: PREINCUBATION). Moreover, the mutagenic call under setting [5] was “inactive; negative”; the mutagenic call (Test System: AMES SALMONELLA TYPHIMURIUM, Strain/Indicator: TA1535, Metabolic Activation: HAMSTER, LIVER, S-9, AROCLOR 1254, Method: STANDARD PLATE) was “active; positive”; the mutagenic call under setting [6] is “inactive; negative”; the mutagenic call under setting [7] is “inactive; negative”; the mutagenic call (Test System: AMES SALMONELLA TYPHIMURIUM, Strain/Indicator: TA1537, Metabolic Activation: HAMSTER, LIVER, S-9, AROCLOR 1254, Method: STANDARD PLATE) was “active; positive”; the mutagenic call (Test System: AMES SALMONELLA TYPHIMURIUM, Strain/Indicator: TA1537, Metabolic Activation: RAT, LIVER, S-9, AROCLOR 1254, Method: STANDARD PLATE) was “active; positive”. Moreover, the mutagenic call was “active; positive” (Test System: AMES SALMONELLA TYPHIMURIUM, Strain/Indicator: TA1538, Metabolic Activation: HAMSTER, LIVER, S-9, AROCLOR 1254, Method: STANDARD PLATE); “active; positive” (Test System: AMES SALMONELLA TYPHIMURIUM, Strain/Indicator: TA1538, Metabolic Activation: NONE, Method: STANDARD PLATE); “active; positive” (Test System: AMES SALMONELLA TYPHIMURIUM, Strain/Indicator: TA1538, Metabolic Activation: RAT, LIVER, S-9, AROCLOR 1254, Method: STANDARD PLATE); “inactive; negative” under setting [8]; “inactive; negative” under setting [9].

Take `C=CC(=O)OCCC`: the mutagenic call by setting is: under setting [8], “active; positive. reevaluation of results: positive”; under setting [9], “active; positive. reevaluation of results: positive”.

For the compound `OCCN1CC1`, the mutagenic call (Test System: CHINESE HAMSTER V-79, Strain/Indicator: V-79/6-THIOGUANINE, Metabolic Activation: NONE, Method: FLASK ASSAY) is “active; positive”.

As to `O=CC(Cl)Cl`, the mutagenic call (Test System: CHINESE HAMSTER V-79, Strain/Indicator: V-79/OUABAIN, Metabolic Activation: NONE) is “inactive; negative” and the mutagenic call (Test System: UDS HUMAN CELLS, Strain/Indicator: EUE LINE/THY INCORP, Metabolic Activation: NONE, Method: AUTORADIOGRAPHY) is “inactive; negative”.
